Like-named read-outs stand apart in the source and are kept apart here. Ends that are not written are not given here.
Tests used:
[1] = tested on: human alveolar basal epithelial adenocarcinoma cell lines (A549); format: cell-based; settings: for Cell viability (%) of test cells: human, 48 h
Protocol: (§1) The antitumor activity of Sample 1 synthesized in the above Test Example 1 with respect to human-derived cultured tumor cells was evaluated. Currently commercially available human gastric cancer cell lines (FU97), human alveolar basal epithelial adenocarcinoma cell lines (A549), human breast cancer cell lines (MDA-MB-231), and human melanoma cell lines (A375) were prepared as test tumor cells. In addition, normal human mammary epithelial cell culture lines (MCF-12F) were prepared for comparison. An RPMI-1640 culture medium including 2 mM of L-glutamine, 1 mM of sodium pyruvate, 10 mM of HEPES, 4,500 mg/mL of glucose, 50 unit/mL of penicillin, 50 μg/mL of streptomycin, and 10% FBS (product, commercially available from Wako Pure Chemical Industries, Ltd.). The above five types of cell lines were cultured in respective designated culture solutions. The cell lines were cultured so that the number of cells per well in a 96-hole (well) plate was about 5×10^3. Here, an amount of the culture solution per well was 100 μL. The 96-well plate was then placed in a CO2 incubator. Then, pre-incubation was performed under conditions of 37° C. and 5% CO2 for about 1 day (about 23 hours). Then, regarding the culture solution for the peptide addition area, culture solutions containing Sample 1 for each concentration were prepared so that the concentration of Sample 1 was 6.25 μM, 12.5 μM or 25 μM and supplied to wells (that is, wells after the pre-incubation) in which 90 μL of cells to be evaluated were cultured in each well. On the other hand, regarding the culture solution for the comparative test area, a culture solution to which no Sample 1 was added was prepared, and supplied to wells (that is, wells after the pre-incubation) in which 90 μL of cells to be evaluated were cultured in each well. The 96-well plate was then placed in a CO2 incubator, and incubated under conditions of 37° C. and 5% CO2 for 48 hours. […] Then, the absorbance at a wavelength of 450 nm (value corrected by the absorbance at a wavelength of 620 nm: A450-A620) was measured based on the reduction of the tetrazolium salt in the culture solution. Then, the cell viability was calculated according to a colorimetric method. In the test areas (test areas 1 to 3) in the peptide addition area, the cell viability of each of the above five types of cell lines was calculated as a relative value when a measured value (measurement absorbance) of the comparative test area in the same cell lines was set as 100%. That is, regarding each of the above five types of cell lines, the cell viability (%) was calculated by dividing the measurement absorbance of the test areas (test areas 1 to 3) in the peptide addition area by the measurement absorbance of the comparative test area in the same cell lines and multiplying by 100.

[2] = tested on: human melanoma cell lines (A375); format: cell-based; settings: for Cell viability (%) of test cells: human, 48 h
Protocol: as §1, with “A DMEM” for “An RPMI-1640”, “including” for “including 2 mM of L-glutamine, 1 mM of sodium pyruvate, 10 mM of HEPES, 4,500 mg/mL of glucose,”, “FBS.” for “FBS (product, commercially available from Wako Pure Chemical Industries, Ltd.).”, “hours. After the incubation for 48 hours, the culture solution in each well was replaced with […] a fresh culture solution containing no Sample 1.” for “hours.”

MACLGFQRHKAQLNLATRTWPCTLLFFLLFIPVFCKKRTLRKTDRKKR-NH2 (cysteines drawn unpaired) [Sample 1]
Specific cell viability of test tumor cells ([1]; A549, 12.5 μM Sample 1, (cell viability of test tumor cells)/(cell viability of MCF-12F cells)×100): 36.0
Cell viability (%) of test cells ([1]; 6.25 μM): 64.7%
Cell viability (%) of test cells ([1]; 12.5 μM): 41.1%
Cell viability (%) of test cells ([1]; 25 μM): 24.9%
Specific cell viability of test tumor cells ([2]; A375, 12.5 μM Sample 1, (cell viability of test tumor cells)/(cell viability of MCF-12F cells)×100): 35.7
Cell viability (%) of test cells ([2]; 6.25 μM): 57.8%
Cell viability (%) of test cells ([2]; 12.5 μM): 40.8%
Cell viability (%) of test cells ([2]; 25 μM): 31.6%

Source: US11472845B2, “Antitumor peptide and use thereof” (TOAGOSEI CO., LTD., priority 2019, dated 2022)
